Assay results reported in patent publication US9351971B2, “Substituted 2,2′-biphenazines for treating diseases” (Eutropics Pharmaceuticals, Inc., priority 2010, dated 2016).
pIC50: −log10 of the molar value. “Also recorded” adds a separate entry of the source.

Key:
[1] = Pharmacokinetics of compound II-19 i.p. in male ICR mice; assay type: in vivo, mouse; conditions: 10 mg/kg
Procedure: FIG. 11 is a graph of the pharmacokinetics of compound II-19 clearance in mouse plasma. Pharmacokinetic profile of Compound II-19 in. male ICR mice is shown. Compound II-19 was dissolved in 5% DMSO, 15% hydroxypropyl-beta-cyclodexmain, and 50 mM Tris in water to yield a nominal concentration of 5 mg/mL. This solution was administered intraperintoncally to […] male ICR mice at a dose of 10 mg/kg. Three mice in each group were used for blood, collection, at each of 8 time points: 5 minutes, 0.25 hrs, 0.5 hrs, 1 hr, 2 hrs, 4 hrs, 8 hrs, and 24 hrs postdose. Plasma samples at these time points were analyzed for the quantity of compound II-19 by standard liquid chromatography/mass spectroscopy methods.
Pharmacokinetic studies were conducted on compound II-19 to assess plasma clearance and distribution in male ICR mice. Compounds were administered i.p. (as in the xenograft study, Example 8) at 10 mg/kg. Blood samples were collected at various time points (pre-injection, 5 min, 15 min, 30 min, 1 h, 2 h, 4 h, 8 h and 24 h), and centrifuged to remove red blood cells. […] Plasma levels of drug were quantified by LC-MS (C18 column elided with linear gradient from 0% acetonitrile, 1% formic acid to 100% acetonitrile, 1% formic acid) against a set of standards prepared by diluting a known quantity of II-19 into mouse plasma.

[2] = target: T1, Bcl-xL (Homo sapiens, UniProt Q07817); experiment: Fluorescence polarization assay, Bim BH3 peptide binding to GST-Bcl-xL; conditions: Bim-BH3-FITC peptide, read-out: IC50, inhibition of Bim-BH3 peptide binding to Bcl-xL
T1 construct: made in house; host or cells: E. coli
Source text: A nineteen amino acid peptide, corresponding to the BH3 domain of Bim, with the sequence FITC-GGGIAQELRRIGDEFNAY (SEQ ID NO: 1) was labeled with the tluorophore FITC according to the manufacturer's instructions (Molecular Probes, Eugene, Oreg.). This sequence was identified as being able to bind to purified Bcl-xL protein (Sattler et al. (1997) Science 275(5302): 983-86) and to have biological activity in cells (Holinger et al. J. Biol. Chem. 274; 13298-1330).
In addition, recombinant GST -Mcl-1 and GST-Bcl-xL fusion proteins were generated in E.coli and purified using glutathione-sepharose beads using conventional techniques known to those skilled in the fields of biochemistry and molecular biology, (methods for preparation are described in Strategies for Protein Purification and Characterization, Marshak, D, Kadonga, J, Burgess R, Knuth, M, Brennan, W, Sue-Hwa, L, CSH press, Cold Spring Harbor, N.Y.). Binding of the recombinant proteins to the fluorescent Bim BH3 domain was confirmed by titration of increasing concentrations of the recombinant proteins against a constant amount of labeled Bim peptide (16.65 nM). Quantitation of binding was accomplished by FP assay with mP measurements made on the Analyst-GT reader (Molecular Devices, Sunnyvale, Calif.).
Further, the ability of compound A to disrupt the interaction between the fluorescent Bim BH3 peptide and the two fusion proteins was assessed using a fluorescence polarization assay. […]
(§1) Experiments are performed using the fluorescence polarization assay as described in Example 2. […] The IC50 for blocking each BH3 peptide from Mcl-1 are assessed using FP, as described in Example 2.
as §1

[3] = tested on: mitochondria in semi-permeabilized SUDHL-10 cells; experiment: In situ mitochondrial assay (cytochrome c release), SUDHL-10; assay type: cell-based; conditions: SUDHL-10 (DHL-10), Bax/Bak deficient, 10 uM
Source text: The on-target activity of compound II-19 was validated. Changes in mitochondrial integrity were observed utilizing anti-cytochrome c conjugated to Alcxa488 (BD). When the mitochondria are intact, they retain cytochrome c and have bright, punctate staining with the antibody whereas cells with compromised mitochondrial integrity will lose cytochrome c and will not stain with the antibody. This can be observed by microscopy as well as measured by a shift in fluorescence on the FL1 channel of a flow cytometer.
The selective response of mitochondria in semi-permeabilized cell lines to the compounds was observed. The assay was adapted from (Campos et al. (2006) Cytometry Part A. 69(A):515-523).
Suspension cell lines SUDHL10 and SUDHL6 were grown in RPMI, washed once in 1xPBS and re-suspended at a concentration of 2e6/ml in assay buffer with 0.0025% Digitonin. Assay buffer; 300 mM Trehalose, 10 mM HEPES-KOH pH 7.7, 80 mM KCl, 1 mM EGTA, 1 mM EDTA, 0.1% BSA, 5 mM Succinate. Cells are incubated with test and control compounds at 10^6 cells/treatment for 1 hour at room temperature. […] Cytochrome c loss was measured by microscopy. At least 100 cells per treatment were counted and scored as positive for cytochrome c loss if they lacked staining. In both methods DMSO was calculated as 0% cytochrome c loss and the Bim response for DHL6 was used to determine 100% cytochrome c loss.

T1 sequence (Q07817 whole entry): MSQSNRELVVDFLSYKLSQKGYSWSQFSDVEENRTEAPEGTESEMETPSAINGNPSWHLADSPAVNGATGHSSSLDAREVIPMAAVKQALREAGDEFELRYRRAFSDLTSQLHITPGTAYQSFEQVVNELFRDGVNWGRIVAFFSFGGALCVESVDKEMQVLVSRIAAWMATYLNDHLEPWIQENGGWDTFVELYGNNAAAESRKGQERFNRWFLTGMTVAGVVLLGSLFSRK

time for which circulating drug levels can be sustained [1]: > 24 h
half-life ([1]; mouse, plasma, ip): > 20 h
pIC50 [2]: 7.82
Structure (SMILES): COC(=O)c1ccc(O)c2nc3c(C=O)c(O)c(-c4c(O)c(C=O)c5nc6c(O)ccc(C(=O)OC)c6nc5c4O)c(O)c3nc12 [II-19, dimethyl 4,4′-diformyl-1,1′,3,3′,6,6′-hexahydroxy-[2,2′-biphenazine]-9,9′-dicarboxylate]
cytochrome c release from mitochondria [3]: but not BAX/BAK-deficient SUDHL-10 cell line; also recorded: lack of activity
